Marks after values point to notes of the source that are not given here.
Tests used:
GCGR = molecular target: T1, GCGR (Homo sapiens, UniProt P47871); assay: In vitro cell activity, cAMP production in HEK293 cells expressing GCGR; assay type: cell-based
T1 construct: expressed in transfected cells; host or cells: HEK293 (HEK293-GCGR)
Procedure, shortened: (§1)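 Assay format: cells at 4×10^5 cells/mL, cAMP sensed by d2/cryptate FRET pair, dual-wavelength read at 665 and 620 nm. Potency expressed as EC50 from nonlinear fitting.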

[1] = In vivo efficacy evaluation in db/db mouse model (blood glucose); design: species or system db/db mice
Protocol: Blood glucose was tested before each administration.

GIPR = molecular target: T2, GIPR (Homo sapiens, UniProt P48546); assay: In vitro cell activity, cAMP production in HEK293 cells expressing GIPR; assay type: cell-based
T2 construct: expressed in transfected cells; host or cells: HEK293 (HEK293-GIPR)
T2 sequence (P48546 22-466): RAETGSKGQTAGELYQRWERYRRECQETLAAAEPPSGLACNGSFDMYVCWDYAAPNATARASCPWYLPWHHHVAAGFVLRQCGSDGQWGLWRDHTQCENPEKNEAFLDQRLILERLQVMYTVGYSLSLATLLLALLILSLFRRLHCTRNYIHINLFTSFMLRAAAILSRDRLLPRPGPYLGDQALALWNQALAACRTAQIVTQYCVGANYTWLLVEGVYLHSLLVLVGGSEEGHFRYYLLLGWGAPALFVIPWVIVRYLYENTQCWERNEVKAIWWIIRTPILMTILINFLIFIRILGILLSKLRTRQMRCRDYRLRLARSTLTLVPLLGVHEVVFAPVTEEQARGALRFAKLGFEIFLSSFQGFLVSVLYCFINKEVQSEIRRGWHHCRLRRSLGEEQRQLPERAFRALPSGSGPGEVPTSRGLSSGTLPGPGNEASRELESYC
Procedure, shortened: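 cAMP accumulation is quantified by homogeneous TR-FRET (cAMP-d2 plus anti-cAMP cryptate) in GIPR-expressing HEK293 cells seeded from a 4×10^5 cells/mL suspension and treated with compound. The signal ratio is plotted against concentration and fitted to a four-parameter curve to give EC50.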

GLP-1R = molecular target: T3, GLP-1R (Homo sapiens, UniProt P43220); assay: In vitro cell activity, cAMP production in HEK293 cells expressing GLP-1R; assay type: cell-based
T3 construct: expressed in transfected cells; host or cells: HEK293 (HEK293-GLP-1R)
Procedure, shortened: as §1

[2] = Long-term repeated administration in diet-induced obese C57BL/6 mice (DIO); assay type: in vivo, C57/BL6 mice
[3] = 10 nmol/kg s.c. once every 3 days, D7
[4] = 10 nmol/kg s.c. once every 3 days, D10
[5] = 10 nmol/kg s.c. once every 3 days, D13
[6] = 10 nmol/kg s.c. once every 3 days, D16
[7] = 10 nmol/kg s.c. once every 3 days, D19
[8] = 10 nmol/kg s.c. once every 3 days, D22
[9] = 10 nmol/kg s.c. once every 3 days, D25
[10] = 10 nmol/kg s.c. once every 3 days, D28
[11] = after 4 weeks of administration
[12] = after 4 weeks of administration, same dose
[13] = long-term administration 10 nmol/kg, 72 h after the last administration
[14] = long-term administration 10 nmol/kg, blood biochemical index

T1 sequence (P47871 26-477, species assumed): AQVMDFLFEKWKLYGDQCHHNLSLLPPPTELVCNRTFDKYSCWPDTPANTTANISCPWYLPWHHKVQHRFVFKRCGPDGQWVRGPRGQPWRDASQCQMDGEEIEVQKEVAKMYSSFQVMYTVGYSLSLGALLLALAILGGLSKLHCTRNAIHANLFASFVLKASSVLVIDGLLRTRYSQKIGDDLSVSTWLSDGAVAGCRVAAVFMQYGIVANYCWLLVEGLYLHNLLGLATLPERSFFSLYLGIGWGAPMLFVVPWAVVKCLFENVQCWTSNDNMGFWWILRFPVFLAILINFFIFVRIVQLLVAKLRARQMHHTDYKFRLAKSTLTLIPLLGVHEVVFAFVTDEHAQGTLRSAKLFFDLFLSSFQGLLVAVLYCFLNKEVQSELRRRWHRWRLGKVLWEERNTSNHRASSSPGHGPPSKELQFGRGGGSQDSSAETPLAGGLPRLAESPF
T3 sequence (P43220 24-463, species assumed): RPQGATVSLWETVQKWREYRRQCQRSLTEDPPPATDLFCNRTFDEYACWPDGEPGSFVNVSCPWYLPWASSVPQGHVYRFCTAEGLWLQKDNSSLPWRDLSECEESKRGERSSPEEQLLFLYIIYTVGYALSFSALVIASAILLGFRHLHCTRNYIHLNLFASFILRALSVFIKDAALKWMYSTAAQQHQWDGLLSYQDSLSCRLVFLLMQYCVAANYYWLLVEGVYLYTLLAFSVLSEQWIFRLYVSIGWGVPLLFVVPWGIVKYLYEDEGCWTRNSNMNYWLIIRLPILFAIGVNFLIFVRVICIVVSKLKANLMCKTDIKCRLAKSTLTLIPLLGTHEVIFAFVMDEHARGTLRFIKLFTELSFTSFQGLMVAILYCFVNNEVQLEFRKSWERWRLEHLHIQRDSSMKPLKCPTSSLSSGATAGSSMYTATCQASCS

## CC[C@H](C)[C@H](NC(=O)[C@H](Cc1ccccc1)NC(=O)[C@H](CCC(=O)O)NC(=O)[C@H](CCCNC(=N)N)NC(=O)[C@H](CCC(N)=O)NC(=O)[C@H](CCCNC(=N)N)NC(=O)[C@H](CCCCNC(=O)COCCOCCNC(=O)CC[C@H](NC(=O)CCCCCCCCCCCCCCCCC(=O)O)C(=O)O)NC(=O)[C@H](CCC(=O)O)NC(=O)[C@H](CC(=O)O)NC(=O)[C@H](CC(C)C)NC(=O)[C@H](CC(C)C)NC(=O)[C@@H](NC(=O)[C@H](CO)NC(=O)[C@H](Cc1ccc(O)cc1)NC(=O)[C@H](CC(=O)O)NC(=O)[C@H](CO)NC(=O)[C@@H](NC(=O)[C@](C)(Cc1ccccc1F)NC(=O)[C@@H](NC(=O)CNC(=O)[C@H](Cc1c[nH]cn1)NC(=O)C(C)(C)NC(=O)[C@@H](N)Cc1ccc(O)cc1)[C@@H](C)O)[C@@H](C)O)[C@@H](C)CC)C(=O)N[C@@H](CCC(=O)O)C(=O)N[C@@H](Cc1c[nH]c2ccccc12)C(=O)N[C@@H](CC(C)C)C(=O)N[C@@H](CC(C)C)C(=O)N[C@@H](C)C(=O)NCC(=O)NCC(=O)N1CCC[C@H]1C(=O)N[C@@H](CO)C(=O)N[C@@H](CO)C(=O)NCC(=O)N[C@@H](C)C(=O)N1CCC[C@H]1C(=O)N1CCC[C@H]1C(=O)N1CCC[C@H]1C(=O)N[C@@H](CO)C(=O)O [HEC-PT77]
GCGR
  EC50: 0.144 nM
[1]; db/db mice, 10 nmol/kg
  blood glucose after administration: significantly reduce blood glucose
[1]; db/db mice, 10 nmol/kg s.c. once every three days, D0 (before first dose)
  Random blood glucose (mM) D0: 26.6 ± 4.2 mM
[1]; db/db mice, 10 nmol/kg s.c. once every three days, D3
  Random blood glucose (mM) D3: 15.8 ± 4.0 mM
[1]; db/db mice, 10 nmol/kg s.c. once every three days, D4
  Random blood glucose (mM) D4: 17.8 ± 5.9 mM
[1]; db/db mice, 10 nmol/kg s.c. once every three days, D5
  Random blood glucose (mM) D5: 21.5 ± 5.6 mM
[1]; db/db mice, 10 nmol/kg s.c. once every three days, D6
  Random blood glucose (mM) D6: 24.1 ± 4.6 mM
[1]; db/db mice, 10 nmol/kg s.c. once every three days, D7
  Random blood glucose (mM) D7: 21.9 ± 3.9 mM
[1]; db/db mice, 10 nmol/kg s.c. once every three days, D10
  Random blood glucose (mM) D10: 13.4 ± 5.4 mM
[1]; db/db mice, 10 nmol/kg s.c. once every three days, D13
  Random blood glucose (mM) D13: 15.7 ± 5.4 mM
[1]; db/db mice, 10 nmol/kg s.c. once every three days, D16
  Random blood glucose (mM) D16: 12.7 ± 6.1 mM
[1]; db/db mice, 10 nmol/kg s.c. once every three days, D19
  Random blood glucose (mM) D19: 15.5 ± 4.6 mM
[1]; db/db mice, 10 nmol/kg s.c. once every three days, D22
  Random blood glucose (mM) D22: 15.6 ± 6.1 mM
[1]; db/db mice, 10 nmol/kg s.c. once every three days, D25
  Random blood glucose (mM) D25: 14.2±5.1^a mM
[1]; db/db mice, 10 nmol/kg s.c., 6 h
  Random blood glucose (mM) 6 h: 15.9 ± 5.9 mM
[1]; db/db mice, 10 nmol/kg s.c., 24 h
  Random blood glucose (mM) 24 h: 8.1 ± 4.5 mM
[1]; db/db mice, 10 nmol/kg s.c., 48 h
  Random blood glucose (mM) 48 h: 11.1 ± 6.2 mM
[1]; db/db mice, 10 nmol/kg, after administration
  time at which blood glucose levels reached the lowest level: about 24 hours
[1]; db/db mice, long-term repeated administration
  blood glucose lowering after long-term administration compared with LY3298176: not inferior to the positive control LY3298176
[1]; db/db mice, same dose 10 nmol/kg
  blood glucose reducing effect after administration compared with LY3298176: slightly better than the positive control LY3298176
[1]; type II diabetes model db/db mice
  blood glucose level after long-term administration: significantly improve the blood glucose level
GIPR
  EC50: 0.0227 nM
GLP-1R
  EC50: 0.0656 nM
[2]; [3]
  Cumulative food intake (g/pcs) D7: 8.7 g/pcs
  Weight gain rate (%) D7: -14.9±3.8%
[2]; [4]
  Cumulative food intake (g/pcs) D10: 11.4 g/pcs
  Weight gain rate (%) D10: -20.9±4.0%
[2]; [5]
  Cumulative food intake (g/each) D13: 14.4 g/each
  Weight gain rate (%) D13: -24.7±5.5%
[2]; [6]
  Cumulative food intake (g/each) D16: 19.1 g/each
  Weight gain rate (%) D16: -26.6±5.6%
[2]; [7]
  Cumulative food intake (g/each) D19: 24.7 g/each
  Weight gain rate (%) D19: -27.7±5.5%
[2]; [8]
  Cumulative food intake (g/each) D22: 30.6 g/each
  Weight gain rate (%) D22: -28.9±6.4%
[2]; [9]
  Cumulative food intake (g/each) D25: 36.7 g/each
  Weight gain rate (%) D25: -31.2±6.9%
[2]; [10]
  Cumulative food intake (g/each) D28: 43.7 g/each
  Weight gain rate (%) D28: -30.4±5.2%
[2]; 10 nmol/kg s.c. once every 3 days, D30
  Cumulative food intake (g/each) D30: 47.5^a g/each
[2]; 10 nmol/kg s.c. once every 3 days, D31
  Weight gain rate (%) D31: -30.2±4.9^a %
[2]; 10 nmol/kg s.c., D0
  Cumulative food intake (g/pcs) D0: 2.4 g/pcs
  Weight gain rate (%) D0: 0.0±0.0%
[2]; 10 nmol/kg s.c., D1
  Cumulative food intake (g/pcs) D1: 2.8 g/pcs
  Weight gain rate (%) D1: -5.5±0.7%
[2]; 10 nmol/kg s.c., D2
  Cumulative food intake (g/pcs) D2: 3.6 g/pcs
  Weight gain rate (%) D2: -7.7±1.9%
[2]; 10 nmol/kg s.c., D3
  Cumulative food intake (g/pcs) D3: 4.7 g/pcs
  Weight gain rate (%) D3: -8.4±0.9%
[2]; 10 nmol/kg s.c., D4
  Cumulative food intake (g/pcs) D4: 6.3 g/pcs
  Weight gain rate (%) D4: -7.1±3.5%
[2]; [11]
  liver function and blood lipids of DIO mice: significantly improved the liver function and blood lipids
  weight loss and food intake inhibition effects compared with Semaglutide: superior to the positive drug Semaglutide
[2]; [12]
  food intake inhibition effect compared with LY3298176: comparable to those of the same dose of the positive drug LY3298176
  weight loss effect compared with LY3298176: comparable to those of the same dose of the positive drug LY3298176
[2]; [13]
  Liver index/%: 2.7±0.0^a %
  Liver/g: 0.9±0.1^a g
  Weight/g: 31.5±3.2^a g
[2]; [14]
  ALT (U/L): 29.1±5.8^a U/L
  AST (U/L): 112.0±20.9^a U/L
  CHOL (mmol/L): 3.2±0.5^a mmol/L
  TRIGL (mmol/L): 0.6±0.1^a mmol/L
